Key:
CCO cells = assay: Compounds cytotoxicity assay (CCK-8 cell viability); assay type: cell-based; details: channel catfish, 72 h
Experimental: The cytotoxicity effects of the selected compounds were detected in CCO cells by the cell viability assay. In brief, the CCO cells were seeded in 96-well plates and cultured to reach approximately 90% confluence in each well at 28°C. Subsequently, the monolayer cells were exposed to a maintenance medium with the tested compounds at different concentrations or DMSO for 72 h. Cell Counting Kit-8 (Beyotime, China) was used to measure the cell viability according to the manufacturer’s protocol after 72 h incubation. The optical density at 450 nm was measured using a Spark microplate reader (TECAN, Switzerland). Then, the maximum safe concentration (≥ 90% cell survived, SC90) of compounds to CCO cells was calculated according to the cell viability.
All data were analyzed with GraphPad Prism 8.0. Viral titers were log10 transformed prior to statistical analyses. The SC90 values were calculated using probit analysis. The data are expressed as the arithmetic mean ± standard deviation (SD) and were analyzed by one-way ANOVA with multiple comparisons test. Statistical significance was defined as *p < 0.05, **p < 0.01.
Figure 1 Cytotoxicity assay. The CCO cells were treated with 12 tested compounds with different concentrations in a 96-well plate for 72 h, and then the cell viability was measured by CCK-8. (A) Kaempferol, (B) Tannic acid, (C) P-Coumaric acid, (D) Magnolol, (E) Baicalein, (F) Genistein, (G) Mangiferin, (H) Rosmarinic acid, (I) Artemisinin, (J) Myricetin, (K) Ginkgolic acid, (L) Shikonin. Data represent mean ± SD normalized to values for DMSO treated group. The SC90 was analyzed and calculated using probit analysis. TEXT PRINTED IN THE PICTURE: (A) Kaempferol: SC90 = 47.53 μg/ml | (B) Tannic acid: SC90 = 90.02 μg/ml | (C) P-Coumaric acid: SC90 ≥500 μg/ml | (D) Magnolol: SC90 = 10.02 μg/ml | (E) Baicalein: SC90 = 29.73 μg/ml | (F) Genistein: SC90 = 13.66 μg/ml | (G) Mangiferin: SC90 ≥500 μg/ml | (H) Rosmarinic acid: SC90 = 46.37 μg/ml | (I) Artemisinin: SC90 ≥500 μg/ml | (J) Myricetin: SC90 = 346.19 μg/ml | (K) Ginkgolic acid: SC90 = 10.89 μg/ml | (L) Shikonin: SC90 = 54.44 μg/ml DOUBTS OF THE COPYIST ABOUT THIS PICTURE: All SC90 values are in small print, so 3, 5, 6, 8 and 9 are hard to tell apart / Kaempferol, SC90: 47.53 (5 or 3 uncertain) / Tannic acid, SC90: 90.02 (9 or 8 uncertain) / Baicalein, SC90: 29.73 (9 or 3 uncertain) / Genistein, SC90: 13.66 (3 and 6 uncertain) / Rosmarinic acid, SC90: 46.37 (6 and 3 uncertain) / Myricetin, SC90: 346.19 (3, 6 and 9 uncertain) / Ginkgolic acid, SC90: 10.89 (8 and 9 uncertain) / Shikonin, SC90: 54.44 (5 uncertain) / P-Coumaric acid, Mangiferin, Artemisinin, SC90: sign ≥ or >; 500 (5 uncertain)

[1] = system: CCV (strain VR-665) in CCO cells; assay: Antiviral activity screening assay, CCV gene expression by RT-qPCR; assay type: cell-based, Channel catfish virus (CCV, Ictalurid herpesvirus 1); details: maximum safe concentration, added 1 h after CCV infection, 36 h
Experimental: To test the anti-CCV effect of tested compounds in the preliminary screening, CCO cells were seeded in 24-well plates and cultured to reach approximately 90% confluence in each well at 28°C. Subsequently, the cells were infected with the CCV at 10^3 TCID50/ml at 28°C for 1 h. After that, the cell culture medium was replaced using an isopycnic DMEM medium containing the maximum safe concentration of indicated compounds. CCV-infected cells treated with DMSO served as a negative control, whereas CCV-infected cells treated with acyclovir (2.5 μg/mL) served as a positive control ([33]). […] According to the percentage inhibition results, we further detected the antiviral activity of kaempferol at maximum safe concentration by viral cytopathic effects (CPE) and western blot analysis.
For RT-qPCR, the total RNA was isolated from CCV-infected cells using RnaExTM (Trizol)^a reagent (GENERAY, China), and reversed transcribed applying a HiScript III RT SuperMix with gDNA wiper (Vazyme, China) following the manufacturer’s instructions. Quantitative PCR was performed with a LightCycler 96 Real-Time PCR Detection System (Roche, USA) using ChamQ Universal SYBR qPCR Master Mix (Vazyme, China) with the following cycle conditions: 95°C for 30 s, followed by 40 cycles of 95°C for 10 s and 60°C for 30 s. […] Fold changes of the selected gene vs 18 s (internal reference) were calculated by the 2^−△△Ct method. […]

O=c1c(O)c(-c2ccc(O)cc2)oc2cc(O)cc(O)c12 [Kaempferol]
SC90 (maximum safe concentration, ≥ 90% cell survived) (CCO cells): 47.53 µg/mL
inhibitory rate of CCV ORF 39 and 59 genes [1]: 99.9%

From article PMC10725991, “Kaempferol is a novel antiviral agent against channel catfish virus infection through blocking viral attachment and penetration in vitro” (Frontiers in Veterinary Science, 2023)
